Data as given in PubChem BioAssay (NCI).
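Protocol summary: plate cells (96-well), add compound at 5 concentrations, incubate 48 h, interpolate endpoints linearly. Abbreviation: GI50, concentration required for 50% inhibition of growth. The concentration for full growth arrest is given as TGI.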

Legend:
Assay in all cases: NCI-60 cell line screen, 48 h
COLO 205 colon = system: COLO 205 colon
NCI-H460 lung = system: NCI-H460 lung
NCI-H226 lung = system: NCI-H226 lung
OVCAR-4 ovarian = system: OVCAR-4 ovarian
PC-3 prostate = system: PC-3 prostate
SF-295 CNS = system: SF-295 CNS
HCC-2998 colon = system: HCC-2998 colon
U251 CNS = system: U251 CNS
NCI-H522 lung = system: NCI-H522 lung
K-562 leukemia = system: K-562 leukemia
ACHN renal = system: ACHN renal
RXF 393 renal = system: RXF 393 renal
SK-MEL-2 melanoma = system: SK-MEL-2 melanoma
HS 578T breast = system: HS 578T breast
DU-145 prostate = system: DU-145 prostate
BT-549 breast = system: BT-549 breast
SK-MEL-5 melanoma = system: SK-MEL-5 melanoma
IGROV1 ovarian = system: IGROV1 ovarian
M14 melanoma = system: M14 melanoma
EKVX NSCLC = system: EKVX NSCLC
MDA-MB-231 breast = system: MDA-MB-231 breast
HT29 colon = system: HT29 colon
CAKI-1 renal = system: CAKI-1 renal
NCI-H23 lung = system: NCI-H23 lung
HCT-15 colon = system: HCT-15 colon
A549 NSCLC = system: A549 NSCLC
MDA-MB-435 = system: MDA-MB-435
HOP-92 NSCLC = system: HOP-92 NSCLC
UACC-257 melanoma = system: UACC-257 melanoma
OVCAR-8 ovarian = system: OVCAR-8 ovarian
MALME-3M melanoma = system: MALME-3M melanoma
TK-10 renal = system: TK-10 renal
NCI/ADR-RES ovarian = system: NCI/ADR-RES ovarian
OVCAR-3 ovarian = system: OVCAR-3 ovarian
786-0 renal = system: 786-0 renal
SK-OV-3 ovarian = system: SK-OV-3 ovarian
HOP-62 NSCLC = system: HOP-62 NSCLC
OVCAR-5 ovarian = system: OVCAR-5 ovarian
SF-539 CNS = system: SF-539 CNS
UACC-62 melanoma = system: UACC-62 melanoma
MCF7 breast = system: MCF7 breast
SNB-19 CNS = system: SNB-19 CNS
UO-31 renal = system: UO-31 renal
SW-620 colon = system: SW-620 colon
T-47D breast = system: T-47D breast
HCT-116 colon = system: HCT-116 colon
KM12 colon = system: KM12 colon
SF-268 CNS = system: SF-268 CNS
LOX IMVI melanoma = system: LOX IMVI melanoma
SNB-75 CNS = system: SNB-75 CNS
SK-MEL-28 melanoma = system: SK-MEL-28 melanoma

## CC(C)C[C@H](NC(=O)[C@@H](O)[C@H](N)Cc1ccc([N+](=O)[O-])cc1)C(=O)O
COLO 205 colon
  GI50: > 25 µM
  TGI: > 25 µM
NCI-H460 lung
  GI50: > 25 µM
  TGI: > 25 µM
NCI-H226 lung
  GI50: > 25 µM
  TGI: > 25 µM
OVCAR-4 ovarian
  GI50: > 25 µM
  TGI: > 25 µM
PC-3 prostate
  GI50: > 25 µM
  TGI: > 25 µM
SF-295 CNS
  GI50: > 25 µM
  TGI: > 25 µM
HCC-2998 colon
  GI50: > 25 µM
  TGI: > 25 µM
U251 CNS
  GI50: > 25 µM
  TGI: > 25 µM
NCI-H522 lung
  GI50: > 25 µM
  TGI: > 25 µM
K-562 leukemia
  GI50: > 25 µM
  TGI: > 25 µM
ACHN renal
  GI50: > 25 µM
  TGI: > 25 µM
RXF 393 renal
  GI50: 19.2 µM
  TGI: > 25 µM
SK-MEL-2 melanoma
  GI50: > 25 µM
  TGI: > 25 µM
HS 578T breast
  GI50: > 25 µM
  TGI: > 25 µM
DU-145 prostate
  GI50: > 25 µM
  TGI: > 25 µM
BT-549 breast
  GI50: > 25 µM
  TGI: > 25 µM
SK-MEL-5 melanoma
  GI50: > 25 µM
  TGI: > 25 µM
IGROV1 ovarian
  GI50: > 25 µM
  TGI: > 25 µM
M14 melanoma
  GI50: > 25 µM
  TGI: > 25 µM
EKVX NSCLC
  GI50: > 25 µM
  TGI: > 25 µM
MDA-MB-231 breast
  GI50: > 25 µM
  TGI: > 25 µM
HT29 colon
  GI50: > 25 µM
  TGI: > 25 µM
CAKI-1 renal
  GI50: > 25 µM
  TGI: > 25 µM
NCI-H23 lung
  GI50: > 25 µM
  TGI: > 25 µM
HCT-15 colon
  GI50: > 25 µM
  TGI: > 25 µM
A549 NSCLC
  GI50: > 25 µM
  TGI: > 25 µM
MDA-MB-435
  GI50: > 25 µM
  TGI: > 25 µM
HOP-92 NSCLC
  GI50: > 25 µM
  TGI: > 25 µM
UACC-257 melanoma
  GI50: > 25 µM
  TGI: > 25 µM
OVCAR-8 ovarian
  GI50: > 25 µM
  TGI: > 25 µM
MALME-3M melanoma
  GI50: > 25 µM
  TGI: > 25 µM
TK-10 renal
  GI50: > 25 µM
  TGI: > 25 µM
NCI/ADR-RES ovarian
  GI50: > 25 µM
  TGI: > 25 µM
OVCAR-3 ovarian
  GI50: 0.0025 µM
  TGI: > 25 µM
786-0 renal
  GI50: > 25 µM
  TGI: > 25 µM
SK-OV-3 ovarian
  GI50: > 25 µM
  TGI: > 25 µM
HOP-62 NSCLC
  GI50: > 25 µM
  TGI: > 25 µM
OVCAR-5 ovarian
  GI50: > 25 µM
  TGI: > 25 µM
SF-539 CNS
  GI50: > 25 µM
  TGI: > 25 µM
UACC-62 melanoma
  GI50: > 25 µM
  TGI: > 25 µM
MCF7 breast
  GI50: > 25 µM
  TGI: > 25 µM
SNB-19 CNS
  GI50: > 25 µM
  TGI: > 25 µM
UO-31 renal
  GI50: > 25 µM
  TGI: > 25 µM
SW-620 colon
  GI50: > 25 µM
  TGI: > 25 µM
T-47D breast
  GI50: > 25 µM
  TGI: > 25 µM
HCT-116 colon
  GI50: > 25 µM
  TGI: > 25 µM
KM12 colon
  GI50: > 25 µM
  TGI: > 25 µM
SF-268 CNS
  GI50: > 25 µM
  TGI: > 25 µM
LOX IMVI melanoma
  GI50: > 25 µM
  TGI: > 25 µM
SNB-75 CNS
  GI50: > 25 µM
  TGI: > 25 µM
SK-MEL-28 melanoma
  GI50: > 25 µM
  TGI: > 25 µM
